Target: T1, BCR-NTRK1 BaF3 cells (Homo sapiens, UniProt P04629)
T1 construct: fused on or other part: P11274 (Breakpoint cluster region protein)
Experiment: BaF3 BCR-NTRK1 cell proliferation assay (ATPlite)
Format: cell-based
Settings: read-out: Inhibition of Cell Proliferation IC50, BCR/BaF3 TrkA
Method in brief: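 BaF3 cells expressing BCR fusions were plated at 10,000 cells/well without IL-3, and MV-4-11 cells at 25,000 cells/well. Cells were treated the next day with an 8-point 1:3 dilution series (top 10 μM final) and incubated 3 days at 37 °C. ATPlite luminescence gave cell number, from which IC50 was fitted.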

T1 sequence (P04629 510-781): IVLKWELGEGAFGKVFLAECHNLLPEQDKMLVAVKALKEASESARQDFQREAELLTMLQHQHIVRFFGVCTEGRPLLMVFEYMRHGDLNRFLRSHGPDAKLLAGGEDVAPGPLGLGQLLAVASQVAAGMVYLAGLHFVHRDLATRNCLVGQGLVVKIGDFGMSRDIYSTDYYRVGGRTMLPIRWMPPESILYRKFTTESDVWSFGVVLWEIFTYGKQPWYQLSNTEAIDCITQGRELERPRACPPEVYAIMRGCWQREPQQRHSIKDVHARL

Clc1cnc2[nH]cc(Cc3cnc(NC4CC4)nc3)c2c1 [Compound P-3005, [5-(5-Chloro-1H-pyrrolo[2,3-b]pyridin-3-ylmethyl)-pyrimidin-2-yl]-cyclopropyl-amine]
IC50: > 10 µM

COc1ccccc1Nc1ncc(Cc2c[nH]c3ncc(Cl)cc23)cn1 [Compound P-3016, [5-(5-Chloro-1H-pyrrolo[2,3-b]pyridin-3-ylmethyl)-pyrimidin-2-yl]-(2-methoxy-phenyl)-amine]
IC50: > 10 µM

Fc1cccc(Nc2ncc(Cc3c[nH]c4ncc(Cl)cc34)cn2)c1 [Compound P-3017, [5-(5-Chloro-1H-pyrrolo[2,3-b]pyridin-3-ylmethyl)-pyrimidin-2-yl]-(3-fluoro-phenyl)-amine]
IC50: > 10 µM

COc1ccc(Nc2ncc(Cc3c[nH]c4ncc(C)cc34)cn2)cn1 [Compound P-3020, (6-Methoxy-pyridin-3-yl)-[5-(5-methyl-1H-pyrrolo[2,3-b]pyridin-3-ylmethyl)-pyrimidin-2-yl]-amine]
IC50: < 0.1 µM

COc1ccc(Nc2ncc(Cc3c[nH]c4ncc(C)cc34)cn2)cc1 [Compound P-3021, (4-Methoxy-phenyl)-[5-(5-methyl-1H-pyrrolo[2,3-b]pyridin-3-ylmethyl)-pyrimidin-2-yl]-amine]
IC50: < 1 µM

COc1cc(Nc2ncc(Cc3c[nH]c4ncc(C)cc34)cn2)ccc1F [Compound P-3022, (4-Fluoro-3-methoxy-phenyl)-[5-(5-methyl-1H-pyrrolo[2,3-b]pyridin-3-ylmethyl)-pyrimidin-2-yl]-amine]
IC50: < 1 µM

COc1ccc(Nc2ncc(Cc3c[nH]c4ncc(C)cc34)cn2)cc1F [Compound P-3023, (3-Fluoro-4-methoxy-phenyl)-[5-(5-methyl-1H-pyrrolo[2,3-b]pyridin-3-ylmethyl)-pyrimidin-2-yl]-amine]
IC50: < 1 µM

CCCOc1ccc(Nc2ncc(Cc3c[nH]c4ncc(C)cc34)cn2)cc1 [Compound P-3024, [5-(5-Methyl-1H-pyrrolo[2,3-b]pyridin-3-ylmethyl)-pyrimidin-2-yl]-(4-propoxy-phenyl)-amine]
IC50: < 1 µM

CCc1ccc(Nc2ncc(Cc3c[nH]c4ncc(C)cc34)cn2)cc1 [Compound P-3025, (4-Ethyl-phenyl)-[5-(5-methyl-1H-pyrrolo[2,3-b]pyridin-3-ylmethyl)-pyrimidin-2-yl]-amine]
IC50: < 0.01 µM

CCOc1ccc(Nc2ncc(Cc3c[nH]c4ncc(C)cc34)cn2)cc1 [Compound P-3026, (4-Ethoxy-phenyl)-[5-(5-methyl-1H-pyrrolo[2,3-b]pyridin-3-ylmethyl)-pyrimidin-2-yl]-amine]
IC50: < 0.1 µM

CCOc1ccc(Nc2ncc(Cc3c[nH]c4ncc(C)cc34)cn2)cn1 [Compound P-3027, (6-Ethoxy-pyridin-3-yl)-[5-(5-methyl-1H-pyrrolo[2,3-b]pyridin-3-ylmethyl)-pyrimidin-2-yl]-amine]
IC50: < 0.1 µM

Cc1cnc2[nH]cc(Cc3cnc(Nc4cc(-c5ccc(F)cc5)n[nH]4)nc3)c2c1 [Compound P-3028, [5-(4-Fluoro-phenyl)-2H-pyrazol-3-yl]-[5-(5-methyl-1H-pyrrolo[2,3-b]pyridin-3-ylmethyl)-pyrimidin-2-yl]-amine]
IC50: < 0.1 µM

Cc1cnc2[nH]cc(Cc3cnc(Nc4cc(C(C)(C)C)n[nH]4)nc3)c2c1 [Compound P-3029, (5-tert-Butyl-2H-pyrazol-3-yl)-[5-(5-methyl-1H-pyrrolo[2,3-b]pyridin-3-ylmethyl)-pyrimidin-2-yl]-amine]
IC50: > 1 µM

Cc1cnc2[nH]cc(Cc3cnc(Nc4ccc(C(C)(C)C)cc4)nc3)c2c1 [Compound P-3030, (4-tert-Butyl-phenyl)-[5-(5-methyl-1H-pyrrolo[2,3-b]pyridin-3-ylmethyl)-pyrimidin-2-yl]-amine amine]
IC50: < 0.01 µM

Cc1cnc2[nH]cc(Cc3cnc(Nc4ccc(C(O)(C(F)(F)F)C(F)(F)F)cc4)nc3)c2c1 [Compound P-3031, 1,1,1,3,3,3-Hexafluoro-2-{4-[5-(5-methyl-1H-pyrrolo[2,3-b]pyridin-3-ylmethyl)-pyrimidin-2-ylamino]-phenyl}-propan-2-ol]
IC50: < 0.01 µM

Cc1cnc2[nH]cc(Cc3cnc(Nc4cc(C5CC5)n[nH]4)nc3)c2c1 [Compound P-3032, (5-Cyclopropyl-2H-pyrazol-3-yl)-[5-(5-methyl-1H-pyrrolo[2,3-b]pyridin-3-ylmethyl)-pyrimidin-2-yl]-amine]
IC50: < 1 µM

CSc1ccc(Nc2ncc(Cc3c[nH]c4ncc(C)cc34)cn2)cc1 [Compound P-3033, [5-(5-Methyl-1H-pyrrolo[2,3-b]pyridin-3-ylmethyl)-pyrimidin-2-yl]-(4-methylsulfanyl-phenyl)-amine]
IC50: < 0.1 µM

Cc1cnc2[nH]cc(Cc3cnc(Nc4ccc(S(C)(=O)=O)cc4)nc3)c2c1 [Compound P-3034, (4-Methanesulfonyl-phenyl)-[5-(5-methyl-1H-pyrrolo[2,3-b]pyridin-3-ylmethyl)-pyrimidin-2-yl]-amine]
IC50: < 0.1 µM

CCn1ccc(Nc2ncc(Cc3c[nH]c4ncc(C)cc34)cn2)n1 [Compound P-3035, (1-Ethyl-1H-pyrazol-3-yl)-[5-(5-methyl-1H-pyrrolo[2,3-b]pyridin-3-ylmethyl)-pyrimidin-2-yl]-amine]
IC50: < 1 µM

CCn1cc(Nc2ncc(Cc3c[nH]c4ncc(C)cc34)cn2)cn1 [Compound P-3036, (1-Ethyl-1H-pyrazol-4-yl)-[5-(5-methyl-1H-pyrrolo[2,3-b]pyridin-3-ylmethyl)-pyrimidin-2-yl]-amine]
IC50: < 1 µM

Cc1cnc2[nH]cc(Cc3cnc(Nc4cc(C(F)(F)F)n[nH]4)nc3)c2c1 [Compound P-3037, [5-(5-Methyl-1H-pyrrolo[2,3-b]pyridin-3-ylmethyl)-pyrimidin-2-yl]-(5-trifluoromethyl-2H-pyrazol-3-yl)-amine]
IC50: > 1 µM

Cc1cnc2[nH]cc(Cc3cnc(Nc4cc(OC(C)C)n[nH]4)nc3)c2c1 [Compound P-3038, (5-Isopropoxy-2H-pyrazol-3-yl)-[5-(5-methyl-1H-pyrrolo[2,3-b]pyridin-3-ylmethyl)-pyrimidin-2-yl]-amine]
IC50: < 1 µM

Cc1ccc(Nc2ccc(Cc3c[nH]c4ncc(Cl)cc34)c(F)n2)cn1 [Compound P-3042, [5-(5-Chloro-1H-pyrrolo[2,3-b]pyridin-3-ylmethyl)-6-fluoro-pyridin-2-yl]-(6-methyl-pyridin-3-yl)-amine]
IC50: < 1 µM

CCOc1ccc(Nc2ccc(C(=O)c3c[nH]c4ncc(C)cc34)c(F)n2)cn1 [Compound P-3045, [6-(6-ethoxy-pyridin-3-ylamino)-2-fluoro-pyridin-3-yl]-(5-methyl-1H-pyrrolo[2,3-b]pyridin-3-yl)-methanone]
IC50: < 0.1 µM

CCOc1ncnc2[nH]cc(Cc3ccc(Nc4ccc(Br)nc4)nc3F)c12 [Compound P-4020, (6-Bromo-pyridin-3-yl)-[5-(4-ethoxy-7H-pyrrolo[2,3-d]pyrimidin-5-ylmethyl)-6-fluoro-pyridin-2-yl]-amine]
IC50: < 1 µM

CCOc1ncnc2[nH]cc(Cc3ccc(Nc4cccnc4)nc3F)c12 [Compound P-4021, [5-(4-Ethoxy-7H-pyrrolo[2,3-d]pyrimidin-5-ylmethyl)-6-fluoro-pyridin-2-yl]-pyridin-3-yl-amine]
IC50: > 1 µM

CCOc1ccc(Nc2ccc(Cc3c[nH]c4ncnc(C5CC5)c34)c(F)n2)cn1 [Compound P-4026, [5-(4-Cyclopropyl-7H-pyrrolo[2,3-d]pyrimidin-5-ylmethyl)-6-fluoro-pyridin-2-yl]-(6-ethoxy-pyridin-3-yl)-amine]
IC50: < 0.1 µM
